Data reported in publication PMC5218480 (PLoS ONE, 2017).

Tested on: MV-4-11 cells
Experiment: Gene expression microarray analysis (Affymetrix PrimeView) and GSEA
Format: cell-based, human
Set-up: RFU PODN (11730768_x_at) / Fold change /veh PODN (11730768_x_at) / RFU LINC00158 (11744669_a_at) / Fold change /veh LINC00158 (11744669_a_at) / RFU DUSP10 (11751237_a_at) / Fold change /veh DUSP10 (11751237_a_at) / RFU ID3 (11757404_x_at) / Fold change /veh ID3 (11757404_x_at) / RFU PLEKHG5 (11737974_s_at) / Fold change /veh PLEKHG5 (11737974_s_at) / RFU LRRC4B (11730491_at) / Fold change /veh LRRC4B (11730491_at) / RFU GIMAP4 (11747438_a_at) / Fold change /veh GIMAP4 (11747438_a_at) / RFU KRT8 (11758183_x_at) / Fold change /veh KRT8 (11758183_x_at) / RFU CNN1 (11734310_a_at) / Fold change /veh CNN1 (11734310_a_at) / RFU VPS37D (11726825_at) / Fold change /veh VPS37D (11726825_at) / RFU C10orf10 (11716522_x_at) / Fold change /veh C10orf10 (11716522_x_at) / RFU KIR2DL2 /// KIR2DL4 /// KIR2DL5A /// KIR2DL5B /// KIR2DS1 /// KIR2DS2 /// KIR2DS3 /// KIR2DS4 /// KIR3DL3 /// KIR3DL3 /// KIR3DS1 (11738374_at) / Fold change /veh KIR2DL2 /// KIR2DL4 /// KIR2DL5A /// KIR2DL5B /// KIR2DS1 /// KIR2DS2 /// KIR2DS3 /// KIR2DS4 /// KIR3DL3 /// KIR3DL3 /// KIR3DS1 (11738374_at) / RFU C1QL1 (11718748_at) / Fold change /veh C1QL1 (11718748_at) / RFU TMPRSS4 (11747572_a_at) / Fold change /veh TMPRSS4 (11747572_a_at) / RFU HAMP (11756126_x_at) / Fold change /veh HAMP (11756126_x_at) / RFU RNFT2 (11725882_a_at) / Fold change /veh RNFT2 (11725882_a_at) / RFU NR4A2 (11747474_a_at) / Fold change /veh NR4A2 (11747474_a_at) / RFU ABCC12 (11746883_a_at) / Fold change /veh ABCC12 (11746883_a_at) / RFU TMEM136 (11760407_x_at) / Fold change /veh TMEM136 (11760407_x_at) / RFU CLDN22 /// WWC2 (11732394_at) / Fold change /veh CLDN22 /// WWC2 (11732394_at) / RFU HLA-DPB1 (11760878_x_at) / Fold change /veh HLA-DPB1 (11760878_x_at) / RFU SPINT1 (11716480_a_at) / Fold change /veh SPINT1 (11716480_a_at) / RFU GAP43 (11754022_s_at) / Fold change /veh GAP43 (11754022_s_at) / RFU A4GNT (11735810_at) / Fold change /veh A4GNT (11735810_at) / RFU PRB3 (11715151_x_at) / Fold change /veh PRB3 (11715151_x_at) / RFU TUBB4B (11761932_at) / Fold change /veh TUBB4B (11761932_at) / RFU CAPN14 (11732068_a_at) / Fold change /veh CAPN14 (11732068_a_at) / RFU TMCC2 (11721928_a_at) / Fold change /veh TMCC2 (11721928_a_at) / RFU IRGQ (11745062_a_at) / Fold change /veh IRGQ (11745062_a_at) / RFU FAM174B (11720279_a_at) / Fold change /veh FAM174B (11720279_a_at) / RFU TMPRSS4 (11748680_a_at) / Fold change /veh TMPRSS4 (11748680_a_at) / RFU FAM212B (11763350_a_at) / Fold change /veh FAM212B (11763350_a_at) / RFU PLEKHG5 (11743358_a_at) / Fold change /veh PLEKHG5 (11743358_a_at) / RFU ZSCAN30 (11745921_a_at) / Fold change /veh ZSCAN30 (11745921_a_at) / RFU CMKLR1 (11741424_a_at) / Fold change /veh CMKLR1 (11741424_a_at) / RFU LOC101060620 /// MAPK8IP1 (11723275_at) / Fold change /veh LOC101060620 /// MAPK8IP1 (11723275_at) / RFU SPTSSB (11747773_x_at) / Fold change /veh SPTSSB (11747773_x_at) / RFU PRSS12 (11739890_at) / Fold change /veh PRSS12 (11739890_at) / RFU BIN1 (11741810_x_at) / Fold change /veh BIN1 (11741810_x_at) / RFU WNT11 (11732464_a_at) / Fold change /veh WNT11 (11732464_a_at) / RFU C10orf10 (11716521_a_at) / Fold change /veh C10orf10 (11716521_a_at) / RFU C5orf56 (11738089_at) / Fold change /veh C5orf56 (11738089_at) / RFU CYB561 (11721691_x_at) / Fold change /veh CYB561 (11721691_x_at) / RFU ANKRD19P (11752326_a_at) / Fold change /veh ANKRD19P (11752326_a_at) / RFU OR2T12 /// OR2T33 /// OR2T8 (11738714_s_at) / Fold change /veh OR2T12 /// OR2T33 /// OR2T8 (11738714_s_at) / RFU VCAN (11748164_a_at) / Fold change /veh VCAN (11748164_a_at) / RFU JSRP1 (11732532_at) / Fold change /veh JSRP1 (11732532_at) / RFU KRTAP10-11 (11738290_x_at) / Fold change /veh KRTAP10-11 (11738290_x_at) / RFU MYO3A (11730013_a_at) / Fold change /veh MYO3A (11730013_a_at) / RFU EBF3 (11725865_a_at) / Fold change /veh EBF3 (11725865_a_at) / RFU CAMK2N1 (11719241_x_at) / Fold change /veh CAMK2N1 (11719241_x_at) / RFU C5orf56 (11738088_a_at) / Fold change /veh C5orf56 (11738088_a_at) / RFU OLFML3 (11715873_a_at) / Fold change /veh OLFML3 (11715873_a_at) / RFU LOC100653217 /// NTM (11731650_a_at) / Fold change /veh LOC100653217 /// NTM (11731650_a_at) / RFU MAPK11 (11762145_a_at) / Fold change /veh MAPK11 (11762145_a_at) / RFU FIZ1 (11724087_x_at) / Fold change /veh FIZ1 (11724087_x_at) / RFU OASL (11726364_x_at) / Fold change /veh OASL (11726364_x_at) / RFU SOX15 (11748057_x_at) / Fold change /veh SOX15 (11748057_x_at) / RFU CD79A (11719716_a_at) / Fold change /veh CD79A (11719716_a_at) / RFU HIST1H1D (11736915_at) / Fold change /veh HIST1H1D (11736915_at) / RFU CASKIN2 (11723855_a_at) / Fold change /veh CASKIN2 (11723855_a_at) / RFU LOC730098 (11760151_x_at) / Fold change /veh LOC730098 (11760151_x_at) / RFU OR4N2 (11742367_at) / Fold change /veh OR4N2 (11742367_at) / RFU PRRT2 (11749266_a_at) / Fold change /veh PRRT2 (11749266_a_at) / RFU SNX32 (11753110_a_at) / Fold change /veh SNX32 (11753110_a_at) / RFU CDHR5 (11726645_a_at) / Fold change /veh CDHR5 (11726645_a_at) / RFU RCAN1 (11760418_a_at) / Fold change /veh RCAN1 (11760418_a_at) / RFU FAM167A (11723789_a_at) / Fold change /veh FAM167A (11723789_a_at) / RFU FAM26E (11764081_at) / Fold change /veh FAM26E (11764081_at) / RFU ISYNA1 (11749810_s_at) / Fold change /veh ISYNA1 (11749810_s_at) / RFU ACY1 (11761880_at) / Fold change /veh ACY1 (11761880_at) / RFU 11764098_at / Fold change /veh 11764098_at / RFU SAMD14 (11745864_x_at) / Fold change /veh SAMD14 (11745864_x_at) / RFU NPB (11741838_a_at) / Fold change /veh NPB (11741838_a_at) / RFU TMPRSS6 (11731388_a_at) / Fold change /veh TMPRSS6 (11731388_a_at) / RFU KRTAP10-2 (11738614_at) / Fold change /veh KRTAP10-2 (11738614_at) / RFU ARHGAP8 /// PRR5-ARHGAP8 (11727945_x_at) / Fold change /veh ARHGAP8 /// PRR5-ARHGAP8 (11727945_x_at) / RFU KRTAP5-7 /// NADSYN1 (11734609_at) / Fold change /veh KRTAP5-7 /// NADSYN1 (11734609_at) / RFU RASL12 (11751679_a_at) / Fold change /veh RASL12 (11751679_a_at) / RFU CDKN2B (11736163_a_at) / Fold change /veh CDKN2B (11736163_a_at) / RFU PRF1 (11729649_at) / Fold change /veh PRF1 (11729649_at) / RFU, ZNF638 /// ZNF638-IT1 / Fold change vs veh, ZNF638 /// ZNF638-IT1 / RFU, PANK3 / Fold change vs veh, PANK3 / RFU, SH3YL1 / Fold change vs veh, SH3YL1 / RFU, ZEB2 / Fold change vs veh, ZEB2 / RFU, NRIP1 / Fold change vs veh, NRIP1 / RFU, PTTG1IP / Fold change vs veh, PTTG1IP / RFU, CAPN2 / Fold change vs veh, CAPN2 / RFU, MED14 / Fold change vs veh, MED14 / RFU, SNORA58 / Fold change vs veh, SNORA58 / RFU, C1orf63 / Fold change vs veh, C1orf63 / RFU, LRRFIP1 / Fold change vs veh, LRRFIP1 / RFU, NDUFAF7 / Fold change vs veh, NDUFAF7 / RFU, SLC12A2 / Fold change vs veh, SLC12A2 / RFU, IBTK / Fold change vs veh, IBTK / RFU, ESF1 / Fold change vs veh, ESF1 / Fold change vs veh, TMEM50B / RFU, TAOK1 / Fold change vs veh, TAOK1 / RFU, ACBD3 / Fold change vs veh, ACBD3 / RFU, TMA16 / Fold change vs veh, TMA16 / RFU, RWDD3 / Fold change vs veh, RWDD3 / RFU, BCAT1 / Fold change vs veh, BCAT1 / RFU, EDEM3 / Fold change vs veh, EDEM3 / RFU, TMEM33 / Fold change vs veh, TMEM33 / RFU, WDR75 / Fold change vs veh, WDR75 / RFU, AHCTF1 / Fold change vs veh, AHCTF1 / RFU, TFRC / Fold change vs veh, TFRC / RFU, ZDHHC17 / Fold change vs veh, ZDHHC17 / RFU, NOM1 / Fold change vs veh, NOM1 / RFU, ARL8B / Fold change vs veh, ARL8B / RFU, ZBTB11 / Fold change vs veh, ZBTB11 / RFU, TAMM41 / Fold change vs veh, TAMM41 / RFU, KIAA1704 /// LOC100996395 / Fold change vs veh, KIAA1704 /// LOC100996395 / RFU, ING1 / Fold change vs veh, ING1 / RFU, TRMT61B / Fold change vs veh, TRMT61B / RFU, FUBP3 / Fold change vs veh, FUBP3 / RFU, TP53 / Fold change vs veh, TP53 / RFU, TNKS2 / Fold change vs veh, TNKS2 / RFU, ZFP14 / Fold change vs veh, ZFP14 / RFU, ACTR2 / Fold change vs veh, ACTR2 / RFU, PPP3R1 / Fold change vs veh, PPP3R1 / RFU, PIK3R1 / Fold change vs veh, PIK3R1 / RFU, HNRNPA1 / Fold change vs veh, HNRNPA1 / RFU, RNF170 / Fold change vs veh, RNF170 / RFU, ZNF28 / Fold change vs veh, ZNF28 / RFU, RNGTT / Fold change vs veh, RNGTT / RFU, OGT / Fold change vs veh, OGT / RFU, BRD1 / Fold change vs veh, BRD1 / RFU, MARS / Fold change vs veh, MARS / RFU, ZNF655 / Fold change vs veh, ZNF655 / RFU, FAHD1 / Fold change vs veh, FAHD1 / RFU, BDP1 / Fold change vs veh, BDP1 / RFU, LRRCC1 / Fold change vs veh, LRRCC1 / RFU, ARID1A / Fold change vs veh, ARID1A / RFU, ZNF146 / Fold change vs veh, ZNF146 / RFU, ZNF330 / Fold change vs veh, ZNF330 / RFU, GPN3 / Fold change vs veh, GPN3 / RFU, C9orf123 / Fold change vs veh, C9orf123 / RFU, N4BP2L2 / Fold change vs veh, N4BP2L2 / RFU, ARFIP1 / Fold change vs veh, ARFIP1 / RFU, FAM179B / Fold change vs veh, FAM179B / RFU, BCL10 / Fold change vs veh, BCL10 / RFU, UHRF1BP1L / Fold change vs veh, UHRF1BP1L / RFU, BET1 / Fold change vs veh, BET1 / RFU, CNOT2 / Fold change vs veh, CNOT2 / RFU, ZNF268 / Fold change vs veh, ZNF268 / Fold change vs veh, ZNF507 / RFU, DGCR2 / Fold change vs veh, DGCR2 / RFU, WDSUB1 / Fold change vs veh, WDSUB1 / Fold change vs veh, HSP90B1 /// MIR3652 / RFU, ADSS / Fold change vs veh, ADSS / RFU, GK / Fold change vs veh, GK / RFU, ZNF148 / Fold change vs veh, ZNF148 / RFU, TAF9 / Fold change vs veh, TAF9 / RFU, SLC1A5 / Fold change vs veh, SLC1A5 / RFU, SLMO2 / Fold change vs veh, SLMO2 / RFU, ABCC4 / Fold change vs veh, ABCC4 / RFU, LOC101060439 /// RAP1B / Fold change vs veh, LOC101060439 /// RAP1B / RFU, RFX7 / Fold change vs veh, RFX7 / RFU, GTPBP10 / Fold change vs veh, GTPBP10 / RFU, CNEP1R1 / Fold change vs veh, CNEP1R1 / RFU, BIVM-ERCC5 /// ERCC5 / Fold change vs veh, BIVM-ERCC5 /// ERCC5 / RFU, ILF3 / Fold change vs veh, ILF3 / RFU 11762660_at / Fold change /veh 11762660_at / RFU VCAN (11757783_s_at) / Fold change /veh VCAN (11757783_s_at) / RFU DDX43 (11728927_at) / Fold change /veh DDX43 (11728927_at) / RFU KRT8 (11758188_x_at) / Fold change /veh KRT8 (11758188_x_at) / RFU NKD1 (11759106_at) / Fold change /veh NKD1 (11759106_at) / RFU SRD5A1 (11742802_a_at) / Fold change /veh SRD5A1 (11742802_a_at) / RFU TPSAB1 /// TPSB2 (11721975_s_at) / Fold change /veh TPSAB1 /// TPSB2 (11721975_s_at) / RFU GSTM3 (11746129_a_at) / Fold change /veh GSTM3 (11746129_a_at) / RFU IL23R (11737362_x_at) / Fold change /veh IL23R (11737362_x_at) / RFU TMEM51 (11727254_a_at) / Fold change /veh TMEM51 (11727254_a_at) / RFU PIWIL2 (11732686_x_at) / Fold change /veh PIWIL2 (11732686_x_at) / RFU ORM1 (11744905_x_at) / Fold change /veh ORM1 (11744905_x_at) / RFU CCDC152 (11743942_at) / Fold change /veh CCDC152 (11743942_at) / RFU ECM1 (11717891_a_at) / Fold change /veh ECM1 (11717891_a_at) / RFU IL23R (11748794_a_at) / Fold change /veh IL23R (11748794_a_at) / RFU TNFAIP8L3 (11732012_x_at) / Fold change /veh TNFAIP8L3 (11732012_x_at) / RFU MBOAT4 (11741988_at) / Fold change /veh MBOAT4 (11741988_at) / RFU 11764193_at / Fold change /veh 11764193_at / RFU TMEM53 (11763286_at) / Fold change /veh TMEM53 (11763286_at) / RFU MAGEB2 (11727129_at) / Fold change /veh MAGEB2 (11727129_at) / RFU TMEM200A (11744735_a_at) / Fold change /veh TMEM200A (11744735_a_at) / RFU CCDC152 (11751479_a_at) / Fold change /veh CCDC152 (11751479_a_at) / RFU FAM211A (11726209_a_at) / Fold change /veh FAM211A (11726209_a_at) / RFU RGS16 (11746705_a_at) / Fold change /veh RGS16 (11746705_a_at) / RFU VCAN (11755009_s_at) / Fold change /veh VCAN (11755009_s_at) / RFU RHOB (11743442_s_at) / Fold change /veh RHOB (11743442_s_at) / RFU RGS16 (11720943_a_at) / Fold change /veh RGS16 (11720943_a_at) / RFU RGS16 (11720944_at) / Fold change /veh RGS16 (11720944_at) / RFU, VPS4B / Fold change vs veh, VPS4B / RFU, CREB1 / Fold change vs veh, CREB1 / RFU, DNAJC13 / Fold change vs veh, DNAJC13 / RFU, GNAQ / Fold change vs veh, GNAQ / RFU, CDK5R1 / Fold change vs veh, CDK5R1 / RFU, ZRANB3 / Fold change vs veh, ZRANB3 / RFU, CUL4A / Fold change vs veh, CUL4A / RFU, CCNY / Fold change vs veh, CCNY / RFU, UFL1 / Fold change vs veh, UFL1 / RFU, COG3 / Fold change vs veh, COG3 / RFU, DIAPH2 / Fold change vs veh, DIAPH2 / RFU, SKA2 / Fold change vs veh, SKA2 / RFU, AFF3 / Fold change vs veh, AFF3 / RFU, LMF1 / Fold change vs veh, LMF1 / RFU, IPO11 / Fold change vs veh, IPO11 / RFU, DFFB / Fold change vs veh, DFFB / RFU, FOXP1 / Fold change vs veh, FOXP1 / RFU, CARD8 / Fold change vs veh, CARD8 / RFU, STRN3 / Fold change vs veh, STRN3 / RFU, ADK / Fold change vs veh, ADK / RFU, RASSF2 / Fold change vs veh, RASSF2 / RFU, WIPF1 / Fold change vs veh, WIPF1 / RFU, LARP1B / Fold change vs veh, LARP1B / RFU, RASA1 / Fold change vs veh, RASA1 / RFU, RB1 / Fold change vs veh, RB1 / RFU, PPFIA1 / Fold change vs veh, PPFIA1 / RFU, MAT2A / Fold change vs veh, MAT2A / RFU, CCT5 / Fold change vs veh, CCT5 / RFU, WDR92 / Fold change vs veh, WDR92 / RFU, CUX1 / Fold change vs veh, CUX1 / RFU, TTC7A / Fold change vs veh, TTC7A / RFU, TMEM135 / Fold change vs veh, TMEM135 / RFU, DEPTOR / Fold change vs veh, DEPTOR / RFU, CPM / Fold change vs veh, CPM / RFU, DNAJB6 / Fold change vs veh, DNAJB6 / RFU, CACNA2D3 / Fold change vs veh, CACNA2D3 / RFU, DTX4 / Fold change vs veh, DTX4 / RFU, TFCP2 / Fold change vs veh, TFCP2 / RFU, GMCL1 /// GMCL1P1 / Fold change vs veh, GMCL1 /// GMCL1P1 / RFU, AEBP2 / Fold change vs veh, AEBP2 / RFU, SNHG1 /// SNORD22 /// SNORD25 /// SNORD26 /// SNORD27 /// SNORD28 /// SNORD29 /// SNORD31 / Fold change vs veh, SNHG1 /// SNORD22 /// SNORD25 /// SNORD26 /// SNORD27 /// SNORD28 /// SNORD29 /// SNORD31 / Fold change (Aza/veh), C12orf56 (ProbeSet 11735607_a_at) / Fold change (ACY-1035/veh), C12orf56 (ProbeSet 11735607_a_at) / Fold change (Aza/veh), FGFR1OP (ProbeSet 11751329_s_at) / Fold change (ACY-1035/veh), FGFR1OP (ProbeSet 11751329_s_at) / Fold change (Aza/veh), VPS36 (ProbeSet 11739960_a_at) / Fold change (ACY-1035/veh), VPS36 (ProbeSet 11739960_a_at) / RFU SYPL1 (11715823_x_at) / Fold change /veh SYPL1 (11715823_x_at) / RFU IGFBP7 (11715501_s_at) / Fold change /veh IGFBP7 (11715501_s_at) / RFU REEP3 (11722064_at) / Fold change /veh REEP3 (11722064_at) / RFU IGLL1 (11728026_x_at) / Fold change /veh IGLL1 (11728026_x_at): dose or concentration left out as unconfirmed
Settings: MV-4-11 cells, 48 hours

For `Nc1ccc(-c2cccs2)cc1NC(=O)c1ccc2c(c1)cc(C1CC1)n2CCN1CCOCC1` [ACY-1035], the “RFU JSRP1 (11732532_at)” value was 43.67 RFU.
